According to US11117892B2, “Pyrrolo-pyridine derivative compound, method for preparing same, and pharmaceutical composition containing same as active ingredient for prevention or treatment of protein kinase-related diseases” (DAEGU-GYEONGBUK MEDICAL INNOVATION FOUNDATION, priority 2017, dated 2021):

Tests used:
Assay in all cases: scanMAX Kinase assay panel
Type in all cases: binding
Conditions in all cases: read-out: % control
MYLK2 = MYLK2 (Homo sapiens (Human), UniProt Q9H1R3)
In short: (§1)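 Panel: scanMAX. Metric: % control. The 100% anchor is DMSO and the 0% anchor is the positive control.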

CAMK2D = CAMK2D (Homo sapiens (Human), UniProt Q13557)
In short: as §1

RIPK1 = RIPK1 (Homo sapiens (Human), UniProt Q13546)
In short: as §1

LKB1 = LKB1 (Homo sapiens (Human), UniProt Q15831)
In short: as §1

PIK3CA(I800L) = PIK3CA(I800L) (Homo sapiens (Human), UniProt P42336, I800L)
In short: as §1

FGR = FGR (Homo sapiens (Human), UniProt P09769)
In short: as §1

p38-gamma = p38-gamma (Homo sapiens (Human), UniProt P53778)
In short: as §1

FER = FER (Homo sapiens (Human), UniProt P16591)
In short: as §1

PAK2 = PAK2 (Homo sapiens (Human), UniProt Q13177)
In short: as §1

HCK = HCK (Homo sapiens (Human), UniProt P08631)
In short: as §1

RET(V804M) = RET(V804M) (Homo sapiens (Human), UniProt P07949, V804M)
In short: as §1

ASK2 = ASK2 (Homo sapiens (Human), UniProt O95382)
In short: as §1

SNRK = SNRK (Homo sapiens (Human), UniProt Q9NRH2)
In short: as §1

MAP3K2 = MAP3K2 (Homo sapiens (Human), UniProt Q9Y2U5)
In short: as §1

MST4 = MST4 (Homo sapiens (Human), UniProt Q9P289)
In short: as §1

PIP5K1A = PIP5K1A (Homo sapiens (Human), UniProt Q99755)
In short: as §1

CAMK1 = CAMK1 (Homo sapiens (Human), UniProt Q14012)
In short: as §1

MEK6 = MEK6 (Homo sapiens (Human), UniProt P52564)
In short: as §1

ROCK1 = ROCK1 (Homo sapiens (Human), UniProt Q13464)
In short: as §1

ERK5 = ERK5 (Homo sapiens (Human), UniProt Q13164)
In short: as §1

MAPKAPK5 = MAPKAPK5 (Homo sapiens (Human), UniProt Q8IW41)
In short: as §1

PIK3CA(E542K) = PIK3CA(E542K) (Homo sapiens (Human), UniProt P42336, E542K)
In short: as §1

MAP3K4 = MAP3K4 (Homo sapiens (Human), UniProt Q9Y6R4)
In short: as §1

BRK = BRK (Homo sapiens (Human), UniProt Q13882)
In short: as §1

CDKL3 = CDKL3 (Homo sapiens (Human), UniProt Q8IVW4)
In short: as §1

ACVR1 = ACVR1 (Homo sapiens (Human), UniProt Q04771)
In short: as §1

LATS2 = LATS2 (Homo sapiens (Human), UniProt Q9NRM7)
In short: as §1

IKK-alpha = IKK-alpha (Homo sapiens (Human), UniProt O15111)
In short: as §1

PAK7 = PAK7 (Homo sapiens (Human), UniProt Q9P286)
In short: as §1

PIKFYVE = PIKFYVE (Homo sapiens (Human), UniProt Q9Y2I7)
In short: as §1

PIK3CB = PIK3CB (Homo sapiens (Human), UniProt P42338)
In short: as §1

MEK5 = MEK5 (Homo sapiens (Human), UniProt Q13163)
In short: as §1

LCK = LCK (Homo sapiens (Human), UniProt P06239)
In short: as §1

EPHA6 = EPHA6 (Homo sapiens (Human), UniProt Q9UF33)
In short: as §1

CAMKK1 = CAMKK1 (Homo sapiens (Human), UniProt Q8N5S9)
In short: as §1

FLT3(R834Q) = FLT3(R834Q) (Homo sapiens (Human), UniProt P36888, R834Q)
In short: as §1

SLK = SLK (Homo sapiens (Human), UniProt Q9H2G2)
In short: as §1

BMX = BMX (Homo sapiens (Human), UniProt P51813)
In short: as §1

[1] = target: ABL1(H396P)-phosphorylated (Homo sapiens (Human), UniProt P00519, H396P)
In short: as §1

Sequence of PIK3CB (P42338 whole entry): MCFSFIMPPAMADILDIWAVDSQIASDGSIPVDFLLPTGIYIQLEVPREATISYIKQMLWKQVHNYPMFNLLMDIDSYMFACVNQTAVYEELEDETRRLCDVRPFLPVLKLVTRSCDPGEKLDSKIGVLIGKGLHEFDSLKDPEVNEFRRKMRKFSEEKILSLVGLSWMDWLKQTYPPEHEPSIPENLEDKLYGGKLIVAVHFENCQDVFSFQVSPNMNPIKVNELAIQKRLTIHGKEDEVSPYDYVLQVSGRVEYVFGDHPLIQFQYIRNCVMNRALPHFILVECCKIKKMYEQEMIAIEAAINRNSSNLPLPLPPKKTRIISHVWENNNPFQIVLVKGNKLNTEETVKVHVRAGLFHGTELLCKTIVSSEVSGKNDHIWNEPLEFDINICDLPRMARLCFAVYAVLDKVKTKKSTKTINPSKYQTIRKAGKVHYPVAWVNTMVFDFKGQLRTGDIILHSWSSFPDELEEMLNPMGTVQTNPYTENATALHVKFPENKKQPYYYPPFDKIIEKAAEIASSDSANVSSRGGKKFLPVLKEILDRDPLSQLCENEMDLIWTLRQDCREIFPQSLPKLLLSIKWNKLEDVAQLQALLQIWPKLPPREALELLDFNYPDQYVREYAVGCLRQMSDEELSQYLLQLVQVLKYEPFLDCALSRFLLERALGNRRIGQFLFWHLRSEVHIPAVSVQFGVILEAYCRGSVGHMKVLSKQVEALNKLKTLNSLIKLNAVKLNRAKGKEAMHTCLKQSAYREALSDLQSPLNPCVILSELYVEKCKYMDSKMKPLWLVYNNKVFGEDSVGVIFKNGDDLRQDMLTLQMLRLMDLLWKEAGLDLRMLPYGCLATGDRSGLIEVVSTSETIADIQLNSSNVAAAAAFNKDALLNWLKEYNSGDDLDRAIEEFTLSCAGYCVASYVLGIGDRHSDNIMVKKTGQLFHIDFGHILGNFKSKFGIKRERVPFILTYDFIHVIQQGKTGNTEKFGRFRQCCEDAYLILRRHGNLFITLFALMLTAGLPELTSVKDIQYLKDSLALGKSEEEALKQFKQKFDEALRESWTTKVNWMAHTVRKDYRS
Sequence of MEK6 (P52564 whole entry): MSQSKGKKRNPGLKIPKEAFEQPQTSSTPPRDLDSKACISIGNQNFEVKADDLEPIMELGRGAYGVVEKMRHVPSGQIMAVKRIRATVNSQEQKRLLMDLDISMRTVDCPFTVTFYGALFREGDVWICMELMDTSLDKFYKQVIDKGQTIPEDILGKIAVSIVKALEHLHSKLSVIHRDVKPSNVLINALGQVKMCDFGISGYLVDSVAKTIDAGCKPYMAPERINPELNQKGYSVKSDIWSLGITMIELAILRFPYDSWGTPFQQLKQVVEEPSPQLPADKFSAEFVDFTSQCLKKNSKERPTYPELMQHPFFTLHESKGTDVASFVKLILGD
Sequence of MAP3K2 (Q9Y2U5 whole entry): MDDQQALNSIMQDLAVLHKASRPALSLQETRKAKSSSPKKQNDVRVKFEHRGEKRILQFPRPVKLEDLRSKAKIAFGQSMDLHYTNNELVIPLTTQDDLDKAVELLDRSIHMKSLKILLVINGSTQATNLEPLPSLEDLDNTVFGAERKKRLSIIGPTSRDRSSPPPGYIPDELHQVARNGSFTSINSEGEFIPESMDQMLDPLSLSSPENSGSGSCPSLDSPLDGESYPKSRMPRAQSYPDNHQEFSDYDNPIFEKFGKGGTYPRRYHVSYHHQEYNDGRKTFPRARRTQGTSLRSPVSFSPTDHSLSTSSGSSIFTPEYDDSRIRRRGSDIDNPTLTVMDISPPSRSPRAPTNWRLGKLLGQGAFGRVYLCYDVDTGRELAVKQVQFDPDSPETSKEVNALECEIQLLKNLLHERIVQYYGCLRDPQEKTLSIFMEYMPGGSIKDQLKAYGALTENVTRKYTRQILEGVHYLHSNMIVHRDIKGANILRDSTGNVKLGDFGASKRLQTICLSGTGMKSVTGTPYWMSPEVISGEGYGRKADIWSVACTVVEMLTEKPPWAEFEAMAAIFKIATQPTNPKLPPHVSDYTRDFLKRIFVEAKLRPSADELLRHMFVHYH
Sequence of IKK-alpha (O15111 whole entry): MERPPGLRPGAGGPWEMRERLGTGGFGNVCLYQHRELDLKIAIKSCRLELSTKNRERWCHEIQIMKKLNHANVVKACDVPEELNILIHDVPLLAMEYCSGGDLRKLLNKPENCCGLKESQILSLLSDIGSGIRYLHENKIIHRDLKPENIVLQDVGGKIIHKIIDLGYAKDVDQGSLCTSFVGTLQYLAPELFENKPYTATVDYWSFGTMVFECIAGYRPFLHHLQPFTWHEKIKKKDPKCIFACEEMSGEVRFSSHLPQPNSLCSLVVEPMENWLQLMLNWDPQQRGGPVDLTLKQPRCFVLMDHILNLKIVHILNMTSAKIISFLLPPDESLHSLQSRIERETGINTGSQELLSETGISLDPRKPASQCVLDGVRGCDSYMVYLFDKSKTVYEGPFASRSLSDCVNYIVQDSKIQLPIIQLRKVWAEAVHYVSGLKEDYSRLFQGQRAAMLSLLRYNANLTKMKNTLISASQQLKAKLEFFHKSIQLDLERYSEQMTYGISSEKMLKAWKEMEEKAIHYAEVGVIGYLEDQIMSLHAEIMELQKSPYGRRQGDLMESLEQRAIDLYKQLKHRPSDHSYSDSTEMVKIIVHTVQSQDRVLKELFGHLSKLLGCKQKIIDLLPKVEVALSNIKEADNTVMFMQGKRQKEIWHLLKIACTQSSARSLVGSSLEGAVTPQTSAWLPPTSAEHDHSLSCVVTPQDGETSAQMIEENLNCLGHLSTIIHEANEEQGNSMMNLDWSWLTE
Sequence of CAMK2D (Q13557 whole entry): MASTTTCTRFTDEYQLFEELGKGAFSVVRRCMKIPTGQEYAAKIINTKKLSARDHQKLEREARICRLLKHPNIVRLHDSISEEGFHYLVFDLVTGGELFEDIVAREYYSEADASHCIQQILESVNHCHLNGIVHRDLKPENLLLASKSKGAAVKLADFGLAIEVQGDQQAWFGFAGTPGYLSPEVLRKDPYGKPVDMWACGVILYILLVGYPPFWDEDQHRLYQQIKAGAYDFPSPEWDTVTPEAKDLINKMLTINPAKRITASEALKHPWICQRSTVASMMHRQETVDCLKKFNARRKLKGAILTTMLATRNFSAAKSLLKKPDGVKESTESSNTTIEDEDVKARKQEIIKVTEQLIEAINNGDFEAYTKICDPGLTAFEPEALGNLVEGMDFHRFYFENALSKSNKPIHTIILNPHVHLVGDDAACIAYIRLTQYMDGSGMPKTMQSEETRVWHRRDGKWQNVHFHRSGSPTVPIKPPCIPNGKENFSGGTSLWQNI
Sequence of LCK (P06239 whole entry): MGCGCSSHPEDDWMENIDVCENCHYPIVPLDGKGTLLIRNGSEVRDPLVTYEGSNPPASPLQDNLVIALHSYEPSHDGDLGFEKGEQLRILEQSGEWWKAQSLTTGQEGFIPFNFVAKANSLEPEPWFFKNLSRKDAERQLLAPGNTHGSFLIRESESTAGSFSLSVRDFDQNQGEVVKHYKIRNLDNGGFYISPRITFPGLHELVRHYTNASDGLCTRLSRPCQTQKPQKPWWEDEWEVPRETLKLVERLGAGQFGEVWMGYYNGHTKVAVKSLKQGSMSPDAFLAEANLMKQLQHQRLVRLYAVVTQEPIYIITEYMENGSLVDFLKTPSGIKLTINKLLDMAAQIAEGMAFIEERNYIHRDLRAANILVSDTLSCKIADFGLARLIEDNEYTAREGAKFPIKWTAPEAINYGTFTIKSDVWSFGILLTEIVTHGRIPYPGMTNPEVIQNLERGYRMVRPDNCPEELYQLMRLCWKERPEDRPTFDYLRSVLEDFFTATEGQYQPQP
Sequence of RIPK1 (Q13546 whole entry): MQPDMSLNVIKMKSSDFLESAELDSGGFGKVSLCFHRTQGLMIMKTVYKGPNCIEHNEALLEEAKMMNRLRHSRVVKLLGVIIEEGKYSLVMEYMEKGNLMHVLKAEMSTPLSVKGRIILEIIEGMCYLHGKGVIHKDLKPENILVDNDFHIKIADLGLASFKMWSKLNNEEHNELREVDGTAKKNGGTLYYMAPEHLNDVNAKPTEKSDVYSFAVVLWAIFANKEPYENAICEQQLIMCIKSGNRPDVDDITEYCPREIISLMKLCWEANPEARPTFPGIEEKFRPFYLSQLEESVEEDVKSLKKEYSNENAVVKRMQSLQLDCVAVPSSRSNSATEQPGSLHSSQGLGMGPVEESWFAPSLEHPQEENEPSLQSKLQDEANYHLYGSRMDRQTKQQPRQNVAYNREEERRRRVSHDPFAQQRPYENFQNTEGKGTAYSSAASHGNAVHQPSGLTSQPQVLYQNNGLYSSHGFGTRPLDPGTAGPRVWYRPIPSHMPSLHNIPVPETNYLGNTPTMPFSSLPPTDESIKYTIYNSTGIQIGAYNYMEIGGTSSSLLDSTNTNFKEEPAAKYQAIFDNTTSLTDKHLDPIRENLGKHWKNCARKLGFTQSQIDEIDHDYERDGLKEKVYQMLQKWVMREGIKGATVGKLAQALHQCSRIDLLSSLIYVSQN
Sequence of FGR (P09769 whole entry): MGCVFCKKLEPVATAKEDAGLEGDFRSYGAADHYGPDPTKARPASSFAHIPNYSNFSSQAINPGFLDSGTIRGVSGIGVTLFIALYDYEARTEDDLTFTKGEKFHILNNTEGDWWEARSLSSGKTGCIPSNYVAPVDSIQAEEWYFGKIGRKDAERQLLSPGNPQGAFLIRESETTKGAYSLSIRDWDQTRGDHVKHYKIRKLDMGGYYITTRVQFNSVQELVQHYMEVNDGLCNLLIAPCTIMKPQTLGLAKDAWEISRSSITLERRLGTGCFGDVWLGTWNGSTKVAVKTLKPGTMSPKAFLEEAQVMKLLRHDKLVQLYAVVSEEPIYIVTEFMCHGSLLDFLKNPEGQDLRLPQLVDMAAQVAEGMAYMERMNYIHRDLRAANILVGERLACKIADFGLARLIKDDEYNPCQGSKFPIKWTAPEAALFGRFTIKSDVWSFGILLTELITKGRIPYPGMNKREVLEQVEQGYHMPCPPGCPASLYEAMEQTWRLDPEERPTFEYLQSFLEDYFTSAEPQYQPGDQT

`CCNc1cc(Nc2ccc(C(=O)N3CCC(N4CCOCC4)CC3)cc2OC)nc2[nH]cc(C(F)(F)F)c12` [Example 57, (4-((4-(ethylamino)-3-(trifluoromethyl)-1H-pyrrolo[2,3-b]pyridin-6-yl)amino)-3-methoxyphenyl) (4-morpholinopiperidin-1-yl)methanone] showed a remaining binding at 1 µM (MYLK2) of 85%, a remaining binding at 1 µM (CAMK2D) of 47% and a remaining binding at 1 µM (RIPK1) of 92%. The remaining binding at 1 µM (LKB1) was 92%, the remaining binding at 1 µM (PIK3CA(I800L)) was 69% and the remaining binding at 1 µM (FGR) was 78%. For the same compound, the remaining binding at 1 µM (p38-gamma) was 77%, the remaining binding at 1 µM (FER) was 67% and the remaining binding at 1 µM (PAK2) was 40%. For the same compound, the remaining binding at 1 µM (HCK) was 88%, the remaining binding at 1 µM (RET(V804M)) was 95% and the remaining binding at 1 µM (ASK2) was 92%. For the same compound, the remaining binding at 1 µM (SNRK) was 100%, the remaining binding at 1 µM (MAP3K2) was 100% and the remaining binding at 1 µM (MST4) was 100%. It also gave a remaining binding at 1 µM (PIP5K1A) of 88%, a remaining binding at 1 µM (CAMK1) of 78% and a remaining binding at 1 µM (MEK6) of 72%. It also gave a remaining binding at 1 µM (ROCK1) of 100%, a remaining binding at 1 µM (ERK5) of 50% and a remaining binding at 1 µM (MAPKAPK5) of 100%. It also gave a remaining binding at 1 µM (PIK3CA(E542K)) of 100%, a remaining binding at 1 µM (MAP3K4) of 79% and a remaining binding at 1 µM (BRK) of 94%. For the same compound, the remaining binding at 1 µM (CDKL3) was 61%, the remaining binding at 1 µM (ACVR1) was 88% and the remaining binding at 1 µM (LATS2) was 100%. For the same compound, the remaining binding at 1 µM (IKK-alpha) was 100%, the remaining binding at 1 µM (PAK7) was 100% and the remaining binding at 1 µM (PIKFYVE) was 77%. For the same compound, the remaining binding at 1 µM (PIK3CB) was 100%, the remaining binding at 1 µM (MEK5) was 99% and the remaining binding at 1 µM (LCK) was 90%. It also gave a remaining binding at 1 µM (EPHA6) of 87%, a remaining binding at 1 µM (CAMKK1) of 59% and a remaining binding at 1 µM (FLT3(R834Q)) of 100%. It also gave a remaining binding at 1 µM (SLK) of 80%, a remaining binding at 1 µM (BMX) of 89% and a remaining binding at 1 µM [1] of 100%.

Work on `CCNc1cc(Nc2ccc(C(=O)N3CCC(N4CCOCC4)CC3)cc2OC)nc2[nH]cc(C#N)c12` [Example 18, 4-(ethylamino)-6-((2-methoxy-4-(4-morpholinopiperidine-1-carbonyl)phenyl)amino)-1H-pyrrolo[2,3-b]pyridine-3-carbonitrile] yielded a remaining binding at 1 µM (MYLK2) of 72%, a remaining binding at 1 µM (CAMK2D) of 82% and a remaining binding at 1 µM (RIPK1) of 94%. For the same compound, the remaining binding at 1 µM (LKB1) was 62%, the remaining binding at 1 µM (PIK3CA(I800L)) was 100% and the remaining binding at 1 µM (FGR) was 100%. It also gave a remaining binding at 1 µM (p38-gamma) of 77%, a remaining binding at 1 µM (FER) of 62% and a remaining binding at 1 µM (PAK2) of 82%. The remaining binding at 1 µM (HCK) was 85%, the remaining binding at 1 µM (RET(V804M)) was 99% and the remaining binding at 1 µM (ASK2) was 82%. For the same compound, the remaining binding at 1 µM (SNRK) was 100%, the remaining binding at 1 µM (MAP3K2) was 79% and the remaining binding at 1 µM (MST4) was 81%. For the same compound, the remaining binding at 1 µM (PIP5K1A) was 100%, the remaining binding at 1 µM (CAMK1) was 62% and the remaining binding at 1 µM (MEK6) was 53%. For the same compound, the remaining binding at 1 µM (ROCK1) was 9.1%, the remaining binding at 1 µM (ERK5) was 20% and the remaining binding at 1 µM (MAPKAPK5) was 43%. For the same compound, the remaining binding at 1 µM (PIK3CA(E542K)) was 96%, the remaining binding at 1 µM (MAP3K4) was 96% and the remaining binding at 1 µM (BRK) was 95%. For the same compound, the remaining binding at 1 µM (CDKL3) was 100%, the remaining binding at 1 µM (ACVR1) was 92% and the remaining binding at 1 µM (LATS2) was 26%. For the same compound, the remaining binding at 1 µM (IKK-alpha) was 44%, the remaining binding at 1 µM (PAK7) was 80% and the remaining binding at 1 µM (PIKFYVE) was 99%. For the same compound, the remaining binding at 1 µM (PIK3CB) was 89%, the remaining binding at 1 µM (MEK5) was 77% and the remaining binding at 1 µM (LCK) was 96%. The remaining binding at 1 µM (EPHA6) was 98%, the remaining binding at 1 µM (CAMKK1) was 70% and the remaining binding at 1 µM (FLT3(R834Q)) was 92%. The remaining binding at 1 µM (SLK) was 95%, the remaining binding at 1 µM (BMX) was 75% and the remaining binding at 1 µM [1] was 85%.
